Results as given in PubChem BioAssay (NCI).
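How tested: cells in 96-well plates exposed to compound for 48 hours at five concentrations. TGI marks complete inhibition of growth.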

What was measured:
Assay in all cases: NCI anticancer screen, dose series, 48 h
DMS 273 small cell lung = system: DMS 273 small cell lung
SNB-78 CNS = system: SNB-78 CNS
SNB-75 CNS = system: SNB-75 CNS
SK-MEL-2 melanoma = system: SK-MEL-2 melanoma
CCRF-CEM leukemia = system: CCRF-CEM leukemia
CAKI-1 renal = system: CAKI-1 renal
A498 renal = system: A498 renal
UACC-62 melanoma = system: UACC-62 melanoma

| SMILES | TGI (DMS 273 small cell lung) [µM] | TGI (SNB-78 CNS) [µM] | TGI (SNB-75 CNS) [µM] | TGI (SK-MEL-2 melanoma) [µM] | TGI (CCRF-CEM leukemia) [µM] | TGI (CAKI-1 renal) [µM] | TGI (A498 renal) [µM] | TGI (UACC-62 melanoma) [µM] |
| --- | --- | --- | --- | --- | --- | --- | --- | --- |
| Cc1nc2c(=O)n(C)c(=O)nc-2n(-c2ccc(Cl)cc2)c1C | > 100 | > 100 | > 100 | > 100 | > 100 | > 100 | > 100 | > 100 |
| COC(=O)c1c(OC(=O)c2ccccc2)noc1CC(=O)OC1C=CCCC1 (stereo unspecified) | > 100 | > 100 | > 100 | > 100 | > 100 | > 100 | > 100 | > 100 |
| CC/C(=C(\c1ccccc1)c1ccc(OCC[N+](C)(C)C)cc1)c1ccccc1 | 19.9 | 34.3 | 23.9 | 30.2 | 26.1 | 32.2 | 40.6 | 26.8 |
| O=C(Cc1nc2ccccc2s1)C(=O)Nc1ccccc1C(F)(F)F | > 100 | > 100 | > 100 | > 100 | > 100 | > 100 | > 100 | > 100 |
| Cc1nn(C(=O)CC(=O)Nc2ccccc2Cl)c(C)c1N=Nc1ccccc1Cl | > 100 | > 100 | > 100 | > 100 | > 100 | > 100 | > 100 | > 100 |
| Nc1n[nH]c(=O)c2c1c(Br)cn2C1OC(CO)C(O)C1O (stereo unspecified) | > 41.2 | > 80.5 | 11.2 | 41.4 | 19.2 | > 100 | > 71.2 | 37.5 |
| O=C1c2ccccc2CC1C1(O)C(=O)Nc2c(Cl)cc(Cl)cc21 (stereo unspecified) | > 100 | > 100 | > 100 | > 100 | > 100 | > 100 |  |  |
| CCc1cccc(C(C)C)c1C1C(=O)C(=O)N(c2nc3ccccc3s2)C(=O)C1=O | > 100 | > 100 | > 100 | > 100 | > 100 | > 100 | > 100 | > 100 |
| O=C1OC2C(O)COC2(OCc2c[nH]c3ccccc23)C1O (stereo unspecified) (tested in a mixture with another compound) | > 100 | > 100 | > 100 | > 100 | > 100 | > 100 | > 100 | > 100 |
| O=C1[C@@H]2C3C=CC([C@H]4C(=O)N(CO)C(=O)[C@@H]34)[C@@H]2C(=O)N1CO | > 57.3 | > 100 | > 100 | > 100 | 59.3 | > 100 | > 100 | > 100 |
| O=S(O)CCCSSCCCCSSCCCS(=O)O | > 100 | > 100 | > 100 | > 100 | > 100 | > 100 | > 100 | > 100 |
